Data on 33 molecules can be found in patent US8871756B2 (Hoffmann-La Roche Inc., priority 2011, dated 2014).

This experiment has as its system RSV Long strain. The experiment in a line: Viral cytopathic effect (CPE) assay, anti-RSV activity. The conditions noted are these: human respiratory syncytial virus, 144 h, RSV Long strain (ATCC); cell viability after 6 days, Cell Counting kit-8. In kind it is cell-based, Respiratory Syncytial Virus. Put shortly:
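EC50 was derived from CCK-8 viability at 450/630 nm measured 6 days post-infection. Infection used enough RSV Long strain for approximately 80–90% cytopathic effect, in the presence of half-log serially diluted compound. Cells were plated the day before at 6×10^3 per well in DMEM/10% FBS.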
(In general: Cytopathic effects are the visible damage that an infection or toxin causes in cultured cells.)

A word on the EC50: it is the midpoint of the concentration-response curve. A low value points to higher potency in that assay. For the molecule `Cc1ccc2nc(N3CCS(=O)(=O)c4ccccc4C3)cc(NC(=O)[C@@H]3CCCN3)c2c1` [Example 27, N-[2-(1,1-Dioxido-2,3-dihydro-1,4-benzothiazepin-4(5H)-yl)-6-methylquinolin-4-yl]prolinamide], a half-maximal effect (EC50) was put at 2.39 µM.
Next, `Cc1ccc2nc(N3CCS(=O)(=O)c4ccccc4C3)cc(N3CCC(C(N)=O)C3)c2c1` (stereo not drawn) [Example 79, 1-[2-(1,1-Dioxido-2,3-dihydro-1,4-benzothiazepin-4(5H)-yl)-6-methylquinolin-4-yl]pyrrolidine-3-carboxamide]: 2.79 µM.
`Cc1ccc2nc(N3CCS(=O)(=O)c4ccccc4C3)cc(NCC3CN=C(N)O3)c2c1` (stereo not drawn) [Example 38-1, N-[(2-Amino-4,5-dihydro-1,3-oxazol-5-yl)methyl]-2-(1,1-dioxido-2,3-dihydro-1,4-benzothiazepin-4(5H)-yl)-6-methylquinolin-4-amine] displayed an EC50 of 0.01 µM.
Regarding `NCCCNc1cc(N2CCS(=O)(=O)c3ccccc3C2)nc2ccc(C(F)F)cc12` [Example 9-29, N-[6-(Difluoromethyl)-2-(1,1-dioxido-2,3-dihydro-1,4-benzothiazepin-4(5H)-yl)quinolin-4-yl]propane-1,3-diamine], the EC50 was 0.024 µM.
Next, `Cc1ccc2nc(N3CCS(=O)(=O)c4ccccc4C3)cc(NCC(O)CCO)c2c1` (stereo not drawn) [Example 68, 4-{[2-(1,1-Dioxido-2,3-dihydro-1,4-benzothiazepin-4(5H)-yl)-6-methylquinolin-4-yl]amino}butane-1,3-diol]: 2.01 µM; `Cc1ccc2nc(N3CCS(=O)(=O)c4ccccc4C3)cc(NC(=O)Cc3ccccn3)c2c1` [Example 47-6, N-[2-(1,1-Dioxido-2,3-dihydro-1,4-benzothiazepin-4(5H)-yl)-6-methylquinolin-4-yl]-2-(pyridin-2-yl)acetamide]: 2.31 µM.
As to `NC1(CNc2cc(N3CCS(=O)(=O)c4ccccc4C3)nc3ccccc23)COC1` [Example 3-48, N-[(3-Aminooxetan-3-yl)methyl]-2-(1,1-dioxido-2,3-dihydro-1,4-benzothiazepin-4(5H)-yl)quinolin-4-amine], the EC50 was determined as 0.023 µM.
In turn, `NCCNc1cc(N2CCS(=O)(=O)c3ccccc3C2)nc2ccc([N+](=O)[O-])cc12` [Example 9-20, N-[2-(1,1-Dioxido-2,3-dihydro-1,4-benzothiazepin-4(5H)-yl)-6-nitroquinolin-4-yl]ethane-1,2-diamine] gave an EC50 of 0.76 µM.
As for `Clc1cc(N2CCCc3ccccc3C2)nc2ccccc12` [Example 118-26, 2-(4-Chloroquinolin-2-yl)-2,3,4,5-tetrahydro-1H-2-benzazepine], the EC50 worked out at 7.75 µM.
`Cc1ccc2nc(N3CC[S+]([O-])c4ccccc4C3)nc(NCC3(NCc4ccccc4)COC3)c2c1` (stereo not drawn) [Example 55-2, N-{[3-(Benzylamino)oxetan-3-yl]methyl}-6-methyl-2-(1-oxido-2,3-dihydro-1,4-benzothiazepin-4(5H)-yl)quinazolin-4-amine] registered an EC50 of 0.202 µM.
On to `COc1ccc2c(c1)CN(c1cc(NCC3(N)COC3)c3cc(C)ccc3n1)CCS2(=O)=O` [Example 1-5, N-[(3-Aminooxetan-3-yl)methyl]-2-(7-methoxy-1,1-dioxido-2,3-dihydro-1,4-benzothiazepin-4(5H)-yl)-6-methylquinolin-4-amine], for which a half-maximal response (EC50) required 0.004 µM.
Next, `NCC1(CNc2cc(N3CCS(=O)(=O)c4ccccc4C3)nc3ccc(CO)cc23)COC1` [Example 106, [4-({[3-(Aminomethyl)oxetan-3-yl]methyl}amino)-2-(1,1-dioxido-2,3-dihydro-1,4-benzothiazepin-4(5H)-yl)quinolin-6-yl]methanol]: 0.002 µM; `Cc1ccc2nc(N3CCCc4ccccc4C3)cc(NCCN)c2c1` [Example 118-3, N-[6-Methyl-2-(1,3,4,5-tetrahydro-2H-2-benzazepin-2-yl)quinolin-4-yl]ethane-1,2 diamine]: 0.063 µM; `NCCNc1cc(N2CCCc3ccccc3C2)nc2ccc(OC(F)F)cc12` [Example 118-18, N-[6-(Difluoromethoxy)-2-(1,3,4,5-tetrahydro-2H-2-benzazepin-2-yl)quinolin-4-yl]ethane-1,2-diamine]: 0.973 µM.
Consider `Cc1ccc2nc(N3CCS(=O)(=O)c4ccccc4C3)cc(N3C[C@H](O)C(C)(C)C3)c2c1` [Example 3-17, (R)-1-[2-(1,1-Dioxido-2,3-dihydro-1,4-benzothiazepin-4(5H)-yl)-6-methylquinolin-4-yl]-4,4-dimethyl-pyrrolidin-3-ol], for which the EC50 was 5.05 µM.
`Cc1ccc2nc(N3CCS(=O)(=O)c4ccccc4C3)cc(OC3CCNC3)c2c1` (stereo not drawn) [Example 98-1, 4-[6-Methyl-4-(pyrrolidin-3-yloxy)quinolin-2-yl]-2,3,4,5-tetrahydro-1,4-benzothiazepine 1,1-dioxide] came in with an EC50 of 0.778 µM. This EC50 is about 6.5-fold lower than that of the molecule before.
Next, `Cc1ccc2nc(N3CCS(=O)(=O)c4ccccc4C3)cc(NCC3(CN)COC3)c2c1` [Example 3-50, N-{[3-(Aminomethyl)oxetan-3-yl]methyl}-2-(1,1-dioxido-2,3-dihydro-1,4-benzothiazepin-4(5H)-yl)-6-methylquinolin-4-amine]: 0.0004 µM; `Cc1ccc2nc(N3CCC(F)(F)c4ccccc4C3)nc(NCC(CN)(CO)CO)c2c1` [Example 114-4, 2-(Aminomethyl)-2-({[2-(5,5-difluoro-1,3,4,5-tetrahydro-2H-2-benzazepin-2-yl)-6-methylquinazolin-4-yl]amino}methyl)propane-1,3-diol]: 0.186 µM; `Cc1ccc2nc(N3CCS(=O)(=O)c4ccccc4C3)cc(NCCC(N)C(F)(F)F)c2c1` (stereo not drawn) [Example 42-1, N^˜1^˜-[2-(1,1-Dioxido-2,3-dihydro-1,4-benzothiazepin-4(5H)-yl)-6-methylquinolin-4-yl]-4,4,4-trifluorobutane-1,3-diamine]: 8.95 µM.
For `Cc1ccc2nc(N3CCS(=O)(=O)c4ccccc4C3)cc(NCCOCCN)c2c1` [Example 5-2, N-[2-(2-Aminoethoxy)ethyl]-2-(1,1-dioxido-2,3-dihydro-1,4-benzothiazepin-4(5H)-yl)-6-methylquinolin-4-amine], the EC50 is 0.211 µM. Against the preceding molecule, the EC50 is about 42-fold lower.
With `NCCCNc1cc(N2CCS(=O)(=O)c3ccccc3C2)nc2ccc(Br)cc12` [Example 9-34, N-[6-Bromo-2-(1,1-dioxido-2,3-dihydro-1,4-benzothiazepin-4(5H)-yl)quinolin-4-yl]propane-1,3-diamine], it took 0.024 µM to reach a half-maximal effect (EC50). This EC50 lies about 8.8-fold lower than the previous one.
Turning to `Cc1ccc2nc(N3CC[S+]([O-])c4ccccc4C3)cc(N3C[C@@H](N)[C@H](O)C3)c2c1` (relative stereo) [Example 19-1, trans-4-Amino-1-[6-methyl-2-(1-oxido-2,3-dihydro-1,4-benzothiazepin-4(5H)-yl)quinolin-4-yl]pyrrolidin-3-ol], the EC50 was determined as 0.043 µM.
In the case of `Cc1ccc2nc(N3CC[S+]([O-])c4ccccc4C3)nc(NCC3(N)COC3)c2c1` (stereo not drawn) [Example 55-1, N-[(3-Aminooxetan-3-yl)methyl]-6-methyl-2-(1-oxido-2,3-dihydro-1,4-benzothiazepin-4(5H)-yl)quinazolin-4-amine], it took 0.007 µM to reach a half-maximal effect (EC50). Against the preceding molecule, the EC50 is about 6.1-fold lower.
Molecule `CN(C)CCNc1cc(N2CCCc3ccccc3C2)nc2ccccc12` [Example 118-22, N,N-Dimethyl-N′-[2-(1,3,4,5-tetrahydro-2H-2-benzazepin-2-yl)quinolin-4-yl]ethane-1,2-diamine] returned an EC50 of 2.23 µM.
Molecule `Cc1ccc2nc(N3CCC(F)(F)c4ccccc4C3)cc(NCCN(C)C)c2c1` [Example 111-8, N′-[2-(5,5-Difluoro-1,3,4,5-tetrahydro-2H-2-benzazepin-2-yl)-6-methylquinolin-4-yl]-N,N-dimethylethane-1,2-diamine] returned an EC50 of 0.283 µM.
Next, `CCC(N)C(=O)Nc1cc(N2CCS(=O)(=O)c3ccccc3C2)nc2ccc(C)cc12` (stereo not drawn) [Example 40-4, 2-Amino-N-[2-(1,1-dioxido-2,3-dihydro-1,4-benzothiazepin-4(5H)-yl)-6-methylquinolin-4-yl]butanamide]: 2.65 µM; `O=S1(=O)CCN(c2cc(NCCO)c3cnccc3n2)Cc2ccccc21` [Example 12-2, 2-{[2-(1,1-Dioxido-2,3-dihydro-1,4-benzothiazepin-4(5H)-yl)-1,6-naphthyridin-4-yl]amino}ethanol]: 0.315 µM; `NCCNc1cc(N2CCCc3c(Cl)cccc3C2)nc2ccccc12` [Example 118-12, N-[2-(6-Chloro-1,3,4,5-tetrahydro-2H-2-benzazepin-2-yl)quinolin-4-yl]ethane-1,2-diamine]: 0.448 µM.
Next, `Cc1ccc2nc(N3CCC(F)(F)c4ccccc4C3)cc(NCCO)c2c1` [Example 111-5, 2-{[2-(5,5-Difluoro-1,3,4,5-tetrahydro-2H-2-benzazepin-2-yl)-6-methylquinolin-4-yl]amino}ethanol]: 1.64 µM; `Cc1ccc2nc(N3CCS(=O)(=O)c4ccccc4C3)cc(N3C[C@@H](N)[C@H](O)C3)c2c1` (relative stereo) [Example 19-3, trans-4-Amino-1-[2-(1,1-dioxido-2,3-dihydro-1,4-benzothiazepin-4(5H)-yl)-6-methylquinolin-4-yl]pyrrolidin-3-ol]: 0.006 µM; `Cc1ccc2nc(N3CCS(=O)(=O)c4ccccc4C3)cc(N3C[C@@H]4NCCO[C@@H]4C3)c2c1` [Example 8-5, 4-{4-[(4aS,7aR)-Hexahydropyrrolo[3,4-b][1,4]oxazin-6(2H)-yl]-6-methylquinolin-2-yl}-2,3,4,5-tetrahydro-1,4-benzothiazepine 1,1-dioxide]: 0.074 µM.
Next, `Cc1ccc2nc(N3CCS(=O)(=O)c4ccccc4C3)cc(N3CC4CC3C4N)c2c1` (stereo not drawn) [Example 19-8, 2-[2-(1,1-Dioxido-2,3-dihydro-1,4-benzothiazepin-4(5H)-yl)-6-methylquinolin-4-yl]-2-azabicyclo[2.1.1]hexan-5-amine]: 2.75 µM; `COc1ccc2nc(N3CCCc4ccccc4C3)cc(NCCN)c2c1` [Example 118-11, N-[6-Methoxy-2-(1,3,4,5-tetrahydro-2H-2-benzazepin-2-yl)quinolin-4-yl]ethane-1,2-diamine]: 0.323 µM.
